Test results from patent US20090175852A1, “IMIDAZOPYRAZINES AS PROTEIN KINASE INHIBITORS” (Schering Corporation, priority 2006, published 2009).

Key:
[1] = target: Mk2 (Homo sapiens, UniProt P49137); experiment: Mk2 kinase inhibition (Table 4 activity data); format: biochemical
[2] = target: T1, CHK-1 (Homo sapiens, UniProt O14757); experiment: CHK-1 kinase inhibition (Table 4 activity data); format: biochemical
T1 sequence (O14757 1-476): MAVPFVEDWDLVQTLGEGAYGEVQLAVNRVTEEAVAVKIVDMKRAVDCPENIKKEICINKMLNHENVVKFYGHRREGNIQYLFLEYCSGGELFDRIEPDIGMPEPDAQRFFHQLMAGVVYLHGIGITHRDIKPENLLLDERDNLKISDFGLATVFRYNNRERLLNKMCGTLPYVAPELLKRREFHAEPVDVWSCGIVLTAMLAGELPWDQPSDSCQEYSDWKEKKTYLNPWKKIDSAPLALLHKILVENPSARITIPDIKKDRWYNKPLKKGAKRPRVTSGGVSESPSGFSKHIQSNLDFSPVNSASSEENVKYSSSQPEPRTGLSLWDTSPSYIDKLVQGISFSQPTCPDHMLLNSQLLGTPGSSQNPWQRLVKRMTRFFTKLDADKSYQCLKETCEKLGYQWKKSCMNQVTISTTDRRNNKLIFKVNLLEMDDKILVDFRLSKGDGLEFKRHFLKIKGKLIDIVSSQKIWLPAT

Mk2, sequence (P49137 whole entry, species assumed): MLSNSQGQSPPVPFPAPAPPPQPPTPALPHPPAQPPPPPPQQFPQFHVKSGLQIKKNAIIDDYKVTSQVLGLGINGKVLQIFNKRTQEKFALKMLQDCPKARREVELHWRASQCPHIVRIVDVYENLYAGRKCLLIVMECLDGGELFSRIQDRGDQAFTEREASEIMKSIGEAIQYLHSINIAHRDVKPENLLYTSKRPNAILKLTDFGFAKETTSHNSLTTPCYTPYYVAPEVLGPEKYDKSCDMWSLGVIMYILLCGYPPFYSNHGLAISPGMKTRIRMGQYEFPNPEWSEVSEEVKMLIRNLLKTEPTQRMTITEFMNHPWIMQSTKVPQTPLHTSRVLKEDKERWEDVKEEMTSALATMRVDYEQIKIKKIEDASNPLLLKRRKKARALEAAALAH

Row | IC50 [1] [nM] | IC50 [2] [nM] | Compound
1 | 650 | 39 | NC(=O)c1cnc(N[C@H]2CCCNC2)c2nc(-c3ccc(Cl)cc3)cn12 [Compound 5]
2 | 60 |  | NC(=O)c1cnc(N[C@H]2CC[C@H](N)CC2)c2nc(-c3ccc(Cl)cc3)cn12 [Compound 12]
3 | 810 | 55 | NC(=O)c1cccc(-c2cn3c(C(N)=O)cnc(N[C@H]4CCCNC4)c3n2)c1 [Compound 39]
4 |  | 870 | N#Cc1cccc(-c2cn3c(C#N)cnc(N[C@H]4CCCNC4)c3n2)c1 [Compound 44]
